Measured values: US9546173B2 (Novartis AG, priority 2012, dated 2017)

target: activated ERK2 (Homo sapiens (Human), UniProt P28482); assay: Activated ERK2 kinase assay (AlphaScreen, ERKtide peptide phosphorylation); assay type: biochemical; settings: […] ERK2, 200 nM ERKtide peptide, 35 μM ATP, 30 min preincubation; read-out: ERK2 IC50
Sequence (P28482 whole entry): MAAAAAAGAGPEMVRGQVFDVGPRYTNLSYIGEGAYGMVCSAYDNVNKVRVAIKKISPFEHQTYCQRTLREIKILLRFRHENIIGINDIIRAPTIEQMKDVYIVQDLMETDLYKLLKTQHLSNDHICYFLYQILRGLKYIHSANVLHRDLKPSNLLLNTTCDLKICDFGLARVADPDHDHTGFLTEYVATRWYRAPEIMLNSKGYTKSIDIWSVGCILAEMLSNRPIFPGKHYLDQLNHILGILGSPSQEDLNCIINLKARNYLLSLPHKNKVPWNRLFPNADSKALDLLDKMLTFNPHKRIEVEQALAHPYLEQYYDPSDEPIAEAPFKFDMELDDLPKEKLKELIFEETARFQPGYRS

IC50 [nM]	Compound
839	CC1(C)c2cnc(N[C@H]3C[C@H](O)C3)nc2CN1C(=O)N[C@H](CO)c1ccccc1 [compound 59, N-((S)-2-hydroxy-1-phenylethyl)-2-(((1r,3S)-3-hydroxycyclobutyl)amino)-5,5-dimethyl-5H-pyrrolo[3,4-d]pyrimidine-6(7H)-carboxamide]
82	CC1(C)c2cnc(N[C@H]3CC[C@H](O)CC3)nc2CN1C(=O)N[C@H](CO)c1ccccc1 [compound 60, N-((S)-2-hydroxy-1-phenylethyl)-2-(((1r,4S)-4-hydroxycyclohexyl)amino)-5,5-dimethyl-5H-pyrrolo[3,4-d]pyrimidine-6(7H)-carboxamide]
21000	CN1CCC(Nc2ncc3c(n2)CN(C(=O)N[C@H](CO)c2ccccc2)C3(C)C)CC1 [compound 61, (S)-N-(2-hydroxy-1-phenylethyl)-5,5-dimethyl-2-((1-methylpiperidin-4-yl)amino)-5H-pyrrolo[3,4-d]pyrimidine-6(7H)-carboxamide]
896	CC1(C)c2cnc(N[C@H]3CC[C@@H](O)CC3)nc2CN1C(=O)N[C@H](CO)c1ccccc1 [compound 62, N-((S)-2-hydroxy-1-phenylethyl)-2-(((1s,4R)-4-hydroxycyclohexyl)amino)-5,5-dimethyl-5H-pyrrolo[3,4-d]pyrimidine-6(7H)-carboxamide]
3560	CC(=O)N1CC[C@H](Nc2ncc3c(n2)CN(C(=O)N[C@H](CO)c2ccccc2)C3(C)C)C1 [compound 63, 2-(((S)-1-acetylpyrrolidin-3-yl)amino)-N-((S)-2-hydroxy-1-phenylethyl)-5,5-dimethyl-5H-pyrrolo[3,4-d]pyrimidine-6(7H)-carboxamide]
740	CC(=O)N1CC[C@@H](Nc2ncc3c(n2)CN(C(=O)N[C@H](CO)c2ccccc2)C3(C)C)C1 [compound 64, 2-(((R)-1-acetylpyrrolidin-3-yl)amino)-N-((S)-2-hydroxy-1-phenylethyl)-5,5-dimethyl-5H-pyrrolo[3,4-d]pyrimidine-6(7H)-carboxamide]
8830	COC(=O)N1CC[C@H](Nc2ncc3c(n2)CN(C(=O)N[C@H](CO)c2ccccc2)C3(C)C)C1 [compound 65, (S)-methyl 3-((6-(((S)-2-hydroxy-1-phenylethyl)carbamoyl)-5,5-dimethyl-6,7-dihydro-5H-pyrrolo[3,4-d]pyrimidin-2-yl)amino)pyrrolidine-1-carboxylate]
30	COC(=O)N1CC[C@@H](Nc2ncc3c(n2)CN(C(=O)N[C@H](CO)c2ccccc2)C3(C)C)C1 [compound 66, (R)-methyl 3-((6-(((S)-2-hydroxy-1-phenylethyl)carbamoyl)-5,5-dimethyl-6,7-dihydro-5H-pyrrolo[3,4-d]pyrimidin-2-yl)amino)pyrrolidine-1-carboxylate]
68	CO[C@H]1CC[C@H](Nc2ncc3c(n2)CN(C(=O)N[C@H](CO)c2ccccc2)C3(C)C)CC1 [compound 67, N-((S)-2-hydroxy-1-phenylethyl)-2-(((1r,4S)-4-methoxycyclohexyl)amino)-5,5-dimethyl-5H-pyrrolo[3,4-d]pyrimidine-6(7H)-carboxamide]
450	CC(=O)N1CC2C(C1)C2Nc1ncc2c(n1)CN(C(=O)N[C@H](CO)c1ccccc1)C2(C)C (stereo partly drawn) [compound 68, 2-((3-acetyl-3-azabicyclo[3.1.0]hexan-6-yl)amino)-N-((S)-2-hydroxy-1-phenylethyl)-5,5-dimethyl-5H-pyrrolo[3,4-d]pyrimidine-6(7H)-carboxamide]
5580	CC(=O)N1CC(Nc2ncc3c(n2)CN(C(=O)N[C@H](CO)c2ccccc2)C3(C)C)C1 [compound 69, (S)-2-((1-acetylazetidin-3-yl)amino)-N-(2-hydroxy-1-phenylethyl)-5,5-dimethyl-5H-pyrrolo[3,4-d]pyrimidine-6(7H)-carboxamide]
932	CC1(C)c2cnc(NC3CCS(=O)(=O)C3)nc2CN1C(=O)N[C@H](CO)c1ccccc1 (stereo partly drawn) [compound 70, 2-((1,1-dioxidotetrahydrothiophen-3-yl)amino)-N-((S)-2-hydroxy-1-phenylethyl)-5,5-dimethyl-5H-pyrrolo[3,4-d]pyrimidine-6(7H)-carboxamide]
2550	Cn1ccc(Nc2ncc3c(n2)CN(C(=O)N[C@H](CO)c2ccccc2)C3(C)C)n1 [compound 71, (S)-N-(2-hydroxy-1-phenylethyl)-5,5-dimethyl-2-((1-methyl-1H-pyrazol-3-yl)amino)-5H-pyrrolo[3,4-d]pyrimidine-6(7H)-carboxamide]
5310	CC1(C)c2cnc(NCC3CCCCO3)nc2CN1C(=O)N[C@H](CO)c1ccccc1 (stereo partly drawn) [compound 72, N-((S)-2-hydroxy-1-phenylethyl)-5,5-dimethyl-2-(((tetrahydro-2H-pyran-2-yl)methyl)amino)-5H-pyrrolo[3,4-d]pyrimidine-6(7H)-carboxamide]
315	CC(Nc1ncc2c(n1)CN(C(=O)N[C@H](CO)c1ccccc1)C2(C)C)C1CCCO1 (stereo partly drawn) [compound 73, N-((S)-2-hydroxy-1-phenylethyl)-5,5-dimethyl-2-((1-(tetrahydrofuran-2-yl)ethyl)amino)-5H-pyrrolo[3,4-d]pyrimidine-6(7H)-carboxamide]
122	CC(C)Nc1ncc2c(n1)CN(C(=O)N[C@H](CO)c1ccccc1)C2(C)C [compound 74, (S)-N-(2-hydroxy-1-phenylethyl)-2-(isopropylamino)-5,5-dimethyl-5H-pyrrolo[3,4-d]pyrimidine-6(7H)-carboxamide]
2640	CC1(C)c2cnc(NCC3CCCO3)nc2CN1C(=O)N[C@H](CO)c1ccccc1 (stereo partly drawn) [compound 75, N-((S)-2-hydroxy-1-phenylethyl)-5,5-dimethyl-2-(((tetrahydrofuran-2-yl)methyl)amino)-5H-pyrrolo[3,4-d]pyrimidine-6(7H)-carboxamide]
31	O=C(NCc1ccc(Cl)cc1)N1Cc2nc(NC3CCOCC3)ncc2C12CCC2 [compound 76, N-(4-chlorobenzyl)-2′-((tetrahydro-2H-pyran-4-yl)amino)spiro[cyclobutane-1,5′-pyrrolo[3,4-d]pyrimidine]-6′(7′H)-carboxamide]
13	O=C(N[C@H](CO)c1ccccc1)N1Cc2nc(NC3CCOCC3)ncc2C12CCC2 [compound 77, (S)-N-(2-hydroxy-1-phenylethyl)-2′-((tetrahydro-2H-pyran-4-yl)amino)spiro[cyclobutane-1,5′-pyrrolo[3,4-d]pyrimidine]-6′(7′H)-carboxamide]
22	CCC1(C)c2cnc(NC3CCOCC3)nc2CN1C(=O)NCc1ccc(Cl)cc1 (stereo not shown) [compound 78, N-(4-chlorobenzyl)-5-ethyl-5-methyl-2-((tetrahydro-2H-pyran-4-yl)amino)-5H-pyrrolo[3,4-d]pyrimidine-6(7H)-carboxamide]
971	CC[C@@]1(C)c2cnc(NC3CCOCC3)nc2CN1C(=O)N[C@H](CO)c1ccccc1 [compound 79, (S)-5-ethyl-N-((S)-2-hydroxy-1-phenylethyl)-5-methyl-2-((tetrahydro-2H-pyran-4-yl)amino)-5H-pyrrolo[3,4-d]pyrimidine-6(7H)-carboxamide]
22	CC[C@]1(C)c2cnc(NC3CCOCC3)nc2CN1C(=O)N[C@H](CO)c1ccccc1 [compound 80, (R)-5-ethyl-N-((S)-2-hydroxy-1-phenylethyl)-5-methyl-2-((tetrahydro-2H-pyran-4-yl)amino)-5H-pyrrolo[3,4-d]pyrimidine-6(7H)-carboxamide]
